# Test results taken from patent publication US20260262643A1, “HERBICIDAL BENZOXAZINES” (FMC CORPORATION, priority 2022, published 2026).
# What was measured:
# [1] = test system: barnyardgrass; test: Test C preemergence; assay type: in vivo, Echinochloa crusgalli
# In short: (§1)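 Pre: seeds in loam/sand, directed soil spray. Post: 1–2 leaf plants, 2–10 cm. Cmpd in non-phytotoxic solvent + surfactant. Greenhouse 10 d; visual rating vs untreated, 0 = none, 100 = complete control.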
# [2] = test system: corn; test: Test C preemergence; assay type: in vivo, Zea mays
# In short: as §1
# [3] = test system: pigweed, palmer; test: Test C postemergence; assay type: in vivo, Amaranthus palmeri; conditions: 10 days, 0 to 100 scale (0 no effect, 100 complete control)
# In short: as §1
# [4] = test system: rice; test: Test D flooded paddy test; assay type: in vivo, Oryza sativa; conditions: 250 g ai/ha, applied to paddy water, visual rating after 13 to 14 days, scale 0 to 100 (0 no effect, 100 complete control)
# In short: (§2)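 Seedlings reached the 2-leaf stage, then pots were flooded to 3 cm over the soil surface. Compound was applied into the water, depth was maintained, and plants stayed in the greenhouse 13 to 14 days before visual scoring (0–100) relative to controls.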
# [5] = test system: ragweed; test: Test C postemergence; assay type: in vivo, Ambrosia artemisiifolia; conditions: 10 days, 0 to 100 scale (0 no effect, 100 complete control)
# In short: as §1
# [6] = test system: green foxtail; test: Test C postemergence; assay type: in vivo, Setaria viridis; conditions: 10 days, 0 to 100 scale (0 no effect, 100 complete control)
# In short: as §1
# [7] = test system: blackgrass; test: Test C preemergence; assay type: in vivo, Alopecurus myosuroides
# In short: as §1
# [8] = test system: ducksalad; test: Test D flooded paddy test; assay type: in vivo, Heteranthera limosa; conditions: 250 g ai/ha, applied to paddy water, visual rating after 13 to 14 days, scale 0 to 100 (0 no effect, 100 complete control)
# In short: as §2
# [9] = test system: ryegrass, Italian; test: Test C preemergence; assay type: in vivo, Lolium multiflorum
# In short: as §1
# [10] = test system: oat, wild; test: Test C postemergence; assay type: in vivo, Avena fatua; conditions: 10 days, 0 to 100 scale (0 no effect, 100 complete control)
# In short: as §1
# [11] = test system: soybean; test: Test C preemergence; assay type: in vivo, Glycine max
# In short: as §1
# [12] = test system: oat, wild; test: Test C preemergence; assay type: in vivo, Avena fatua
# In short: as §1
# [13] = test system: ryegrass, Italian; test: Test C postemergence; assay type: in vivo, Lolium multiflorum; conditions: 10 days, 0 to 100 scale (0 no effect, 100 complete control)
# In short: as §1
# [14] = test system: kochia; test: Test C postemergence; assay type: in vivo, Bassia scoparia; conditions: 10 days, 0 to 100 scale (0 no effect, 100 complete control)
# In short: as §1
# [15] = test system: barnyardgrass; test: Test D flooded paddy test; assay type: in vivo, Echinochloa crus-galli; conditions: 250 g ai/ha, applied to paddy water, visual rating after 13 to 14 days, scale 0 to 100 (0 no effect, 100 complete control)
# In short: as §2
# [16] = test system: corn; test: Test C postemergence; assay type: in vivo, Zea mays; conditions: 10 days, 0 to 100 scale (0 no effect, 100 complete control)
# In short: as §1
# [17] = test system: wheat; test: Test C postemergence; assay type: in vivo, Triticum aestivum; conditions: 10 days, 0 to 100 scale (0 no effect, 100 complete control)
# In short: as §1
# [18] = test system: pigweed, palmer; test: Test C preemergence; assay type: in vivo, Amaranthus palmeri
# In short: as §1
# [19] = test system: blackgrass; test: Test C postemergence; assay type: in vivo, Alopecurus myosuroides; conditions: 10 days, 0 to 100 scale (0 no effect, 100 complete control)
# In short: as §1
# [20] = test system: wheat; test: Test C preemergence; assay type: in vivo, Triticum aestivum
# In short: as §1
# [21] = test system: green foxtail; test: Test C preemergence; assay type: in vivo, Setaria viridis
# In short: as §1
# [22] = test system: galium; test: Test C postemergence; assay type: in vivo, Galium aparine; conditions: 10 days, 0 to 100 scale (0 no effect, 100 complete control)
# In short: as §1
# [23] = test system: horseweed; test: Test C postemergence; assay type: in vivo, Erigeron canadensis; conditions: 10 days, 0 to 100 scale (0 no effect, 100 complete control)
# In short: as §1
# [24] = test system: soybean; test: Test C postemergence; assay type: in vivo, Glycine max; conditions: 10 days, 0 to 100 scale (0 no effect, 100 complete control)
# In short: as §1
# [25] = test system: sedge, umbrella; test: Test D flooded paddy test; assay type: in vivo, Cyperus difformis; conditions: 250 g ai/ha, applied to paddy water, visual rating after 13 to 14 days, scale 0 to 100 (0 no effect, 100 complete control)
# In short: as §2
# [26] = test system: ragweed; test: Test C preemergence; assay type: in vivo, Ambrosia artemisiifolia
# In short: as §1
# [27] = test system: kochia; test: Test C preemergence; assay type: in vivo, Bassia scoparia
# In short: as §1
# [28] = test system: barnyardgrass; test: Test C postemergence; assay type: in vivo, Echinochloa crusgalli; conditions: 10 days, 0 to 100 scale (0 no effect, 100 complete control)
# In short: as §1
# [29] = 500 g ai/ha, preemergence, 0 to 100 scale (0 no effect, 100 complete control)
# [30] = Preemergence, 125 g ai/ha, 0 to 100 scale, 0 no effect, 100 complete control
smiles,measurement,setting,value
CCOC[C@H]1CN(C(=O)c2cc(-n3cnc(CC)n3)cc3c2OCCO3)c2cccc(Cl)c2O1 [Compound 387],Barnyardgrass plant response rating,[1]; [29],100
same,"Plant response rating, Barnyardgrass",[1]; [30],50
same,Corn plant response rating,[2]; [29],30
same,"Plant response rating, Corn",[2]; [30],0
same,"Plant response rating, Pigweed, Palmer","[3]; 500 g ai/ha, postemergence",100
same,"Plant response rating, Pigweed, Palmer","[3]; Postemergence, 125 g ai/ha",90
same,"Plant response rating, Rice (Flood)",[4],10
same,"Plant response rating, Ragweed","[5]; 500 g ai/ha, postemergence",80
same,"Plant response rating, Ragweed","[5]; Postemergence, 125 g ai/ha",70
same,"Plant response rating, Foxtail, Green","[6]; 500 g ai/ha, postemergence",80
same,"Plant response rating, Foxtail, Green","[6]; Postemergence, 125 g ai/ha",40
same,Blackgrass plant response rating,[7]; [29],20
same,"Plant response rating, Blackgrass",[7]; [30],0
same,"Plant response rating, Ducksalad (Flood)",[8],20
same,"Ryegrass, Italian plant response rating",[9]; [29],80
same,"Plant response rating, Ryegrass, Italian",[9]; [30],60
same,"Plant response rating, Oat, Wild","[10]; 500 g ai/ha, postemergence",20
same,"Plant response rating, Oat, Wild","[10]; Postemergence, 125 g ai/ha",0
same,Soybean plant response rating,[11]; [29],100
same,"Plant response rating, Soybean",[11]; [30],90
same,"Oat, Wild plant response rating",[12]; [29],70
same,"Plant response rating, Oat, Wild",[12]; [30],40
same,"Plant response rating, Ryegrass, Italian","[13]; 500 g ai/ha, postemergence",80
same,"Plant response rating, Ryegrass, Italian","[13]; Postemergence, 125 g ai/ha",40
same,"Plant response rating, Kochia","[14]; 500 g ai/ha, postemergence",100
same,"Plant response rating, Kochia","[14]; Postemergence, 125 g ai/ha",80
same,"Plant response rating, Barnyardgrass (Flood)",[15],25
same,"Plant response rating, Corn","[16]; 500 g ai/ha, postemergence",70
same,"Plant response rating, Corn","[16]; Postemergence, 125 g ai/ha",10
same,"Plant response rating, Wheat","[17]; 500 g ai/ha, postemergence",30
same,"Plant response rating, Wheat","[17]; Postemergence, 125 g ai/ha",10
same,"Pigweed, Palmer plant response rating",[18]; [29],100
same,"Plant response rating, Pigweed, Palmer",[18]; [30],100
same,"Plant response rating, Blackgrass","[19]; 500 g ai/ha, postemergence",90
same,"Plant response rating, Blackgrass","[19]; Postemergence, 125 g ai/ha",60
same,Wheat plant response rating,[20]; [29],30
same,"Plant response rating, Wheat",[20]; [30],10
same,"Foxtail, Green plant response rating",[21]; [29],100
same,"Plant response rating, Foxtail, Green",[21]; [30],50
same,"Plant response rating, Galium","[22]; 500 g ai/ha, postemergence",100
same,"Plant response rating, Galium","[22]; Postemergence, 125 g ai/ha",100
same,"Plant response rating, Horseweed","[23]; 500 g ai/ha, postemergence",60
same,"Plant response rating, Horseweed","[23]; Postemergence, 125 g ai/ha",50
same,"Plant response rating, Soybean","[24]; 500 g ai/ha, postemergence",100
same,"Plant response rating, Soybean","[24]; Postemergence, 125 g ai/ha",100
same,"Plant response rating, Sedge, Umbrella (Flood)",[25],70
same,Ragweed plant response rating,[26]; [29],100
same,"Plant response rating, Ragweed",[26]; [30],80
same,Kochia plant response rating,[27]; [29],100
same,"Plant response rating, Kochia",[27]; [30],20
same,"Plant response rating, Barnyardgrass","[28]; 500 g ai/ha, postemergence",60
same,"Plant response rating, Barnyardgrass","[28]; Postemergence, 125 g ai/ha",20
